10 compounds from patent US5112740A, “Carbon dioxide assay for body fluids comprising carbonic anhydrase” (Eastman Kodak Company, priority 1989, dated 1992) can be followed below.

The subject of experiment [1] is carbonic anhydrase. Nature of the experiment: Carbonic anhydrase inhibitors tested against hemolysate bias on the enzymatic CO2 slide (Example 3). Type of experiment: biochemical, human. The note with it: for Enzymatic Bicarbonate With Hemolysate: hemoglobin 200 mg/dL, 1 hour room temperature; for Bias: with vs without hemolysate (hemoglobin 200 mg/dL). The protocol: (§1) A stock hemolysate solution was prepared by collecting fresh blood from suitable human donors. The erythrocytes of the blood was pooled, and then washed with saline four times. The erythrocytes were then lysed by five cycles of freezing to -70° C. and thawing at 37° C. The resulting hemolysate was filtered through Whatman No. 1 (Whatman Ltd. UK) filter paper. Hemoglobin concentration in mg/dL was determined by the method of Harboe described in Sca. J. Clinical Lab. Invest. […] The concentration of hemoglobin is directly related to the level of carbonic anhydrase in the hemolysate stock solution.
The enzymatic values for CO2 were determined on the test samples with dry-chemistry slides on an […] Clinical Chemistry Analyzer (available from Eastman Kodak Company, Rochester, N.Y.). The principle of the assay is as represented above by reaction series (1) and (5). […] It had the following format:
A stock solution of 50 mmol/L bicarbonate was prepared in 100 mmol/L tricine buffer (pH 8.0).

The test system of experiment [2] is carbonic anhydrase. Conditions: acetazolamide included in the enzymatic CO2 dry chemistry element. The method, then:
as §1

Experiment [3] deals with carbonic anhydrase.
Description: Reference values for CO2 (Table I) on test samples were determined using a thermal conductivity procedure on the Corning 965 carbon dioxide analyzer. The technology of the reference procedure is such that it is not affected by carbonic anhydrase.
The enzymatic values for CO2 were determined on the test samples with dry-chemistry slides on an [sequence] Clinical Chemistry Analyzer (available from Eastman Kodak Company, Rochester, N.Y.). The principle of the assay is as represented above by reaction series (1) and (5). […] It had the following format:
A stock solution of 50 mmol/L bicarbonate was prepared in 100 mmol/L tricine buffer (pH 8.0). The stock bicarbonate was diluted with either (a) the buffer or (b) the stock hemolysate and the buffer to give test solutions of about 25 mmol/L HCO3^- and varying concentrations of hemoglobin.
Experiment [4] has as its system carbonic anhydrase. Conditions: solution assay.
The mark [5] stands for this setting: final inhibitor concentration 2.5 mmol/L.
Where [6] appears, read: final inhibitor concentration 20.0 mmol/L.
[7] abbreviates: final inhibitor concentration 5.0 mmol/L.
Where [8] appears, read: final inhibitor concentration 2.0 mmol/L.
Where [9] appears, read: final inhibitor concentration 1.0 mmol/L.

As for `[N-]=[N+]=[N-]` [Azide], in the experiment on carbonic anhydrase [1] (setting [5]), the “Enzymatic Bicarbonate With Hemolysate” value amounted to 16.5 mmol/L and the Bias is -6.8 mmol/L.
Turning to `N#CS` [Thiocyanate], in the experiment with carbonic anhydrase [1] (setting [5]), the “Enzymatic Bicarbonate With Hemolysate” value worked out at 15.3 mmol/L and the Bias was -6.7 mmol/L.
For the compound `NCC(=O)O` [Glycine], in the experiment with carbonic anhydrase [1] (setting [6]), the “Enzymatic Bicarbonate With Hemolysate” value is 14.3 mmol/L and the Bias was -8.1 mmol/L.
Regarding `CC(N)C(=O)O` (racemic) [DL-Alanine], in the experiment with carbonic anhydrase [1] (setting [6]), the “Enzymatic Bicarbonate With Hemolysate” value is reported as 14.3 mmol/L and the Bias is listed as -8.6 mmol/L.
As for `O=C(O)CN(CCO)CCN(CC(=O)O)CC(=O)O` [HEDTA, NHydroxyethylethylenediaminetriacetic acid], in the experiment with carbonic anhydrase [1] (setting [7]), the “Enzymatic Bicarbonate With Hemolysate” value is 15.7 mmol/L and the Bias is reported as -7.6 mmol/L.
For `O[C@H](CS)[C@@H](O)CS` [Dithioerythritol], in that order: 17.5 mmol/L and -5.8 mmol/L.
On to `Nc1ccc(S(N)(=O)=O)cc1` [Sulfanilamide], for which, in the experiment with carbonic anhydrase [1] (setting [8]), the “Enzymatic Bicarbonate With Hemolysate” value turned out to be 14.9 mmol/L and the Bias is -7.9 mmol/L.
Take `CC(=O)Nc1nnc(S(N)(=O)=O)s1` [Acetazolamide]: the “Effectiveness in eliminating the negative bias of the enzymatic CO2 assay” value in the experiment with carbonic anhydrase [1] (among the carbonic anhydrase inhibitors tested) was “most effective”. In the experiment with carbonic anhydrase [1] (setting [9]), the “Enzymatic Bicarbonate With Hemolysate” value is given as 22.9 mmol/L and the Bias is -0.3 mmol/L. Further, the “Effect on bias seen with hemolyzed and apparently non-hemolysed patient samples” value with carbonic anhydrase [2] is reported as “effectively eliminates the bias”. Further, the “Effect on bias seen with freshly prepared hemolysates” value in the experiment with carbonic anhydrase [3] (acetazolamide included in the enzymatic CO2 dry chemistry element) is “significantly reduces the bias”. The “Effectiveness when included in the reagent layer” value in the experiment on carbonic anhydrase [3] (reagent layer compared with spreading layer) is “equally as effective”. Besides, the “Minimum concentration effective as an inhibitor” value in the experiment with carbonic anhydrase [4] is on record as “at least 0.1 mmol/L”.
`O=C(O)CN(CCN(CC(=O)O)CC(=O)O)CC(=O)O` [EDTA, Ethylenediaminetetraacetic acid]: in the experiment on carbonic anhydrase [1] (setting [7]), the “Enzymatic Bicarbonate With Hemolysate” value was 14.7 mmol/L and the Bias is on record as -8.1 mmol/L.
On to `Nc1ccc(S(=O)(=O)Nc2nccs2)cc1` [Sulfathiazole], for which, in the experiment with carbonic anhydrase [1] (setting [8]), the “Enzymatic Bicarbonate With Hemolysate” value came to 15.8 mmol/L and the Bias is recorded as -8.4 mmol/L.
